Data on 17 compounds can be found in patent US12570662B2, “Substituted pyrrolo[1,2-b]pyridazines as bifunctional degraders of interleukin-1 receptor-associated kinases” (Nurix Therapeutics, Inc., priority 2021, dated 2026).

The target in the experiment is T1, IRAK4 (Homo sapiens, UniProt Q9NWZ3).
T1 construct: C-terminal HiBiT-tagged Jurkat cells (polyclonal cell line or clone 8D5); endogenous in cells; host or cells: Jurkat cells (polyclonal cell line or clone 8D5), HiBiT-tagged
T1 sequence (Q9NWZ3 1-460): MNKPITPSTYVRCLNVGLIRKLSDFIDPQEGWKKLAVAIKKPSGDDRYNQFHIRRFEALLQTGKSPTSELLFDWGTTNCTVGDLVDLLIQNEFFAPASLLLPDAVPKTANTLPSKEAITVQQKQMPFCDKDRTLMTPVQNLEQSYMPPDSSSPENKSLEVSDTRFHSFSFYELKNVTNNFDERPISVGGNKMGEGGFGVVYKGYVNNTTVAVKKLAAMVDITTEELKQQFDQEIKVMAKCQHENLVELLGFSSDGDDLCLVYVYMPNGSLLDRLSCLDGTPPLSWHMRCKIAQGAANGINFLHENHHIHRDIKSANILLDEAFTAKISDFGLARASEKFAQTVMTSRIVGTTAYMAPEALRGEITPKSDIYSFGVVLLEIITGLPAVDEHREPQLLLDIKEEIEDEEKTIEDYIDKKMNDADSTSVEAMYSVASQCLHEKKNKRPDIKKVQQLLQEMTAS
Briefly: IRAK4 Degradation HiBit Assay. Type of experiment: cell-based. Particulars: C-terminal HiBiT-tagged Jurkat cells, 4 hrs incubation; for DC50: % IRAK4 remaining, four-parameter fit (IC50 used as DC50); for Dmax: from fit of % IRAK4 remaining, read-out: Dmax. The method, boiled down: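 Degradation was quantified by luminescence after adding lytic detection reagent containing LgBiT to HiBiT-tagged Jurkat cells (polyclonal or clone 8D5). Cells were treated 4 h at 32 °C across 11 concentrations from 10 μM to 0.1 nM final. Four-parameter curve fitting of % IRAK4 remaining versus DMSO gave DC50 and Dmax.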

For the compound `CNc1cc(-c2ccc3cc(C#N)cnn23)ncc1-c1nnc([C@H]2CC[C@H](C(=O)N3CCc4cc([C@H]5CCC(=O)NC5=O)ccc4C3)CC2)s1` (racemic) [Example 5, 7-[4-(methylamino)-5-{5-[(1r,4r)-4-{6-[(3RS)-2,6-dioxopiperidin-3-yl]-1,2,3,4-tetrahydroisoquinoline-2-carbonyl}cyclohexyl]-1,3,4-thiadiazol-2-yl}pyridin-2-yl]pyrrolo[1,2-b]pyridazine-3-carbonitrile], the DC50 was determined as 21 nM and the Dmax came out at 79%.

Turning to `N#Cc1cnn2c(-c3cc(N[C@@H]4CCOC4)c(-c4nnc(N5CC6CCC(C5)N6CC5CCN(c6ccc(C7CCC(=O)NC7=O)cc6)CC5)s4)cn3)ccc2c1` (mixture of isomers) [Example 98, 7-[5-(5-{8-[(1-{4-[(3RS)-2,6-dioxopiperidin-3-yl]phenyl}piperidin-4-yl)methyl]-3,8-diazabicyclo[3.2.1]octan-3-yl}-1,3,4-thiadiazol-2-yl)-4-{[(3R)-oxolan-3-yl]amino}pyridin-2-yl]pyrrolo[1,2-b]pyridazine-3-carbonitrile], the DC50 worked out at 16 nM and the Dmax was 105%.

For `N#Cc1cnn2c(-c3cc(N[C@@H]4CCOC4)c(-c4nnc(N5CC6CCC(C5)N6CC5CCN(c6ccc([C@@H]7CCC(=O)NC7=O)cc6)CC5)s4)cn3)ccc2c1` (single isomer, unassigned) [Example 131], the DC50 came out at 21 nM and the Dmax came out at 110%.

Turning to `CC(C)Nc1cc(-c2ccc3cc(C#N)cnn23)ncc1-c1nnc(N2CC3CCC(C2)N3CC2CCN(c3ccc([C@H]4CCC(=O)NC4=O)cc3)CC2)s1` (racemic) [Example 72, rac-7-[5-(5-{8-[(1-{4-[(3R)-2,6-dioxopiperidin-3-yl]phenyl}piperidin-4-yl)methyl]-3,8-diazabicyclo[3.2.1]octan-3-yl}-1,3,4-thiadiazol-2-yl)-4-[(propan-2-yl)amino]pyridin-2-yl]pyrrolo[1,2-b]pyridazine-3-carbonitrile], it took 45 nM to reach half-maximal degradation (DC50) and the Dmax is 60%.

Take `N#Cc1cnn2c(-c3cc(NC4CCOCC4)c(-c4nnc(N5CCN(CC6CCN(c7cncc(C8CCC(=O)NC8=O)c7)CC6)CC5)s4)cn3)ccc2c1` (racemic) [Example 11, rac-7-[5-(5-{4-[(1-{5-[(3R)-2,6-dioxopiperidin-3-yl]pyridin-3-yl}piperidin-4-yl)methyl]piperazin-1-yl}-1,3,4-thiadiazol-2-yl)-4-[(oxan-4-yl)amino]pyridin-2-yl]pyrrolo[1,2-b]pyridazine-3-carbonitrile]: the DC50 came out at 32 nM and the Dmax came to 77%.

On to `N#Cc1cnn2c(-c3cc(NC4CCOCC4)c(-c4nnc(N5CCN(CC6CCN(c7cc(C8CCC(=O)NC8=O)ccn7)CC6)CC5)s4)cn3)ccc2c1` (racemic) [Example 12, rac-7-[5-(5-{4-[(1-{4-[(3R)-2,6-dioxopiperidin-3-yl]pyridin-2-yl}piperidin-4-yl)methyl]piperazin-1-yl}-1,3,4-thiadiazol-2-yl)-4-[(oxan-4-yl)amino]pyridin-2-yl]pyrrolo[1,2-b]pyridazine-3-carbonitrile], for which it took 36 nM to reach half-maximal degradation (DC50) and the Dmax worked out at 60%.

`CCNc1cc(-c2ccc3cc(C#N)cnn23)ncc1-c1nnc(N2CCN(CC3CCN(c4ccc(C5CCC(=O)NC5=O)cn4)CC3)CC2)o1` (racemic) [Example 69, rac-7-[5-(5-{4-[(1-{5-[(3R)-2,6-dioxopiperidin-3-yl]pyridin-2-yl}piperidin-4-yl)methyl]piperazin-1-yl}-1,3,4-oxadiazol-2-yl)-4-(ethylamino)pyridin-2-yl]pyrrolo[1,2-b]pyridazine-3-carbonitrile]: the half-maximal degradation concentration (DC50) worked out at 1000 nM and the Dmax turned out to be 84%.

With `CCNc1cc(-c2ccc3cc(C#N)cnn23)ncc1-c1nnc(N2CC3CCC(C2)N3CC2CCN(c3ccc([C@@H]4CCC(=O)NC4=O)cc3)CC2)s1` (single isomer, unassigned) [Example 126], the DC50 turned out to be 43 nM and the Dmax came to 108%.

With `N#Cc1cnn2c(-c3cc(NC4CCOCC4)c(-c4nnc(N5CC6CCC(C5)N6C(=O)C5CCN(c6ccc([C@@H]7CCC(=O)NC7=O)cn6)CC5)s4)cn3)ccc2c1` (racemic) [Example 29, rac-7-(5-{5-[8-(1-{5-[(3R)-2,6-dioxopiperidin-3-yl]pyridin-2-yl}piperidine-4-carbonyl)-3,8-diazabicyclo[3.2.1]octan-3-yl]-1,3,4-thiadiazol-2-yl}-4-[(oxan-4-yl)amino]pyridin-2-yl)pyrrolo[1,2-b]pyridazine-3-carbonitrile], the DC50 is 9 nM and the Dmax amounted to 79%.

In the case of `N#Cc1cnn2c(-c3cc(NC4CCC4)c(-c4nnc(N5CCN(CC6CCN(c7ccc(C8CCC(=O)NC8=O)cn7)CC6)CC5)s4)cn3)ccc2c1` (racemic) [Example 113, rac-7-[4-(cyclobutylamino)-5-(5-{4-[(1-{5-[(3R)-2,6-dioxopiperidin-3-yl]pyridin-2-yl}piperidin-4-yl)methyl]piperazin-1-yl}-1,3,4-thiadiazol-2-yl)pyridin-2-yl]pyrrolo[1,2-b]pyridazine-3-carbonitrile], the DC50 was found to be 239 nM and the Dmax was found to be 105%.

On to `N#Cc1cnn2c(-c3cc(NC4CCOCC4)c(-c4nnc(N5CCN(CC6CCN(c7ccc(N8CCC(=O)NC8=O)cc7)C6)CC5)s4)cn3)ccc2c1` (racemic) [Example 91, rac-7-{5-[5-(4-{[(3R)-1-[4-(2,4-dioxo-1,3-diazinan-1-yl)phenyl]pyrrolidin-3-yl]methyl}piperazin-1-yl)-1,3,4-thiadiazol-2-yl]-4-[(oxan-4-yl)amino]pyridin-2-yl}pyrrolo[1,2-b]pyridazine-3-carbonitrile], for which the DC50 was found to be 97 nM and the Dmax stood at 32%.

`N#Cc1cnn2c(-c3cc(NC4CCOCC4)c(-c4nnc(N5CCN(C[C@@H]6CCN(c7ccc([C@H]8CCC(=O)NC8=O)cn7)C6)CC5)s4)cn3)ccc2c1` (racemic) [Example 13, 7-{5-[5-(4-{[(3RS)-1-{5-[(3RS&)-2,6-dioxopiperidin-3-yl]pyridin-2-yl}pyrrolidin-3-yl]methyl}piperazin-1-yl)-1,3,4-thiadiazol-2-yl]-4-[(oxan-4-yl)amino]pyridin-2-yl}pyrrolo[1,2-b]pyridazine-3-carbonitrile]: half-maximal degradation (DC50) was put at 32 nM and the Dmax came to 66%.

On to `CCNc1cc(-c2ccc3cc(C#N)cnn23)ncc1-c1nnc(N2CCN(CC3CCN(c4ccc(N5CCC(=O)NC5=O)cn4)CC3)CC2)s1` [Example 71, 7-(5-{5-[4-({1-[5-(2,4-dioxo-1,3-diazinan-1-yl)pyridin-2-yl]piperidin-4-yl}methyl)piperazin-1-yl]-1,3,4-thiadiazol-2-yl}-4-(ethylamino)pyridin-2-yl)pyrrolo[1,2-b]pyridazine-3-carbonitrile], for which it took 6 nM to reach half-maximal degradation (DC50) and the Dmax is 110%.

Take `CCNc1cc(-c2ccc3cc(C#N)cnn23)ncc1-c1nnc(N2CCN(CC3CCN(c4ccc(C5CCC(=O)NC5=O)cn4)CC3)CC2)s1` (racemic) [Example 68, rac-7-[5-(5-{4-[(1-{5-[(3R)-2,6-dioxopiperidin-3-yl]pyridin-2-yl}piperidin-4-yl)methyl]piperazin-1-yl}-1,3,4-thiadiazol-2-yl)-4-(ethylamino)pyridin-2-yl]pyrrolo[1,2-b]pyridazine-3-carbonitrile]: the DC50 is 187 nM and the Dmax came out at 103%.

For the compound `CC(C)Nc1cc(-c2ccc3cc(C#N)cnn23)ncc1-c1nnc(N2CCN(C(=O)CC3CCN(c4ccc(C5CCC(=O)NC5=O)cn4)CC3)CC2)s1` (racemic) [Example 19, rac-7-[5-(5-{4-[2-(1-{5-[(3R)-2,6-dioxopiperidin-3-yl]pyridin-2-yl}piperidin-4-yl)acetyl]piperazin-1-yl}-1,3,4-thiadiazol-2-yl)-4-[(propan-2-yl)amino]pyridin-2-yl]pyrrolo[1,2-b]pyridazine-3-carbonitrile], the DC50 turned out to be 29 nM and the Dmax was determined as 103%.

As to `N#Cc1cnn2c(-c3cc(NC4CCOCC4)c(-c4nnc(C56CCC(CN7CCc8cc(C9CCC(=O)NC9=O)ccc8C7)(CC5)CC6)s4)cn3)ccc2c1` (racemic) [Example 90, rac-7-(5-{5-[4-({6-[(3R)-2,6-dioxopiperidin-3-yl]-1,2,3,4-tetrahydroisoquinolin-2-yl}methyl)bicyclo[2.2.2]octan-1-yl]-1,3,4-thiadiazol-2-yl}-4-[(oxan-4-yl)amino]pyridin-2-yl)pyrrolo[1,2-b]pyridazine-3-carbonitrile], half-maximal degradation (DC50) was put at 64 nM and the Dmax was 25%.

As for `N#Cc1cnn2c(-c3cc(NC4CCOCC4)c(-c4nnc(C56CCC(C(=O)N7CCc8cc(C9CCC(=O)NC9=O)ccc8C7)(CC5)CC6)s4)cn3)ccc2c1` (racemic) [Example 57, rac-7-{5-[5-(4-{6-[(3R)-2,6-dioxopiperidin-3-yl]-1,2,3,4-tetrahydroisoquinoline-2-carbonyl}bicyclo[2.2.2]octan-1-yl)-1,3,4-thiadiazol-2-yl]-4-[(oxan-4-yl)amino]pyridin-2-yl}pyrrolo[1,2-b]pyridazine-3-carbonitrile], the DC50 amounted to 71 nM and the Dmax stood at 104%.
